Assay results reported in patent US7964598B2 (The J. David Gladstone Institutes, priority 1995, dated 2011).
Where “and” joins values, the source holds several entries; their conditions need not be identical. Equal entries are not always repeated. Entries after “also recorded” stand apart in the source; their conditions may differ.

Experiments:
apoE4 = biological target: T1, apoE4 (Homo sapiens, UniProt P02649, C130R); assay: Emulsion binding assay for domain interaction, apoE4
T1 construct: made in house
Procedure: (§1) Preparation of emulsion particles. Triolein (160 mg) and L-alpha-Phosphatidylcholine (40 mg) are combined and dried under nitrogen. After the addition of 8 mls of buffer (10 mM Tris, 100 mM KCl, 1 mM EDTA, pH 8.0), the mixture is sonicated in a water bath to obtain a heterogeneous mix of emulsion particles. The particles are harvested by ultracentrifugation (TLA 100.2 rotor, 30,000 rpm for 30 minutes) and the subsequent lipid cake is removed by tube slicing and resuspended in 100 μt 20 mM Phosphate Buffer (PB). Triolein and phospholipid content are measured and total emulsion particle concentration is determined.
(§2) Radiolabelling Freshly denatured and renatured Apolipoprotein E3 and E4 are radiolabelled using Bolton-Hunter Reagent [^125I] (ICN). Specific Activity is determined using Lowry method and Gamma 8000 counter.
(§3) Binding Affinity Assay. […] In glass tubes, 25 μg of protein (with iodinated tracer) was reduced with 1% β-mercaptoethanol. Two hundred and fifty μg of emulsion particles and 2.5 μl of compound (10 mM stock) were added and the final mixture was brought up to 250 μl with 20 mM phosphate buffer (PB). The reaction mixture was then incubated in a 37° C. water bath for 2 hours before being transferred to 1.5 ml ultracentrifuge tubes. Finally, 50 μl of 60% sucrose was mixed with the sample and 400 μl 20 mM PB was carefully layered on top. Using a TLA 100.2 rotor, the tube was spun at 30,000 rpm for 30 minutes and subsequently cut to separate the floating emulsion particle layer from the free protein at the bottom of the tube. These fractions were then combined with the respective half of the actual tube and counted using a Gamma-8000. […] Protein-only assays yielded 94.5-96.6% of protein accumulated in the bottom portion of the tube. In emulsion particle-only assays, 94% of emulsion particles accumulated in the top portion of the tube.
(§4) Preparation of Emulsion Particles and VLDL Binding Affinity Assay. VLDL-like emulsion particles were prepared using triolein (160 mg) and L-alpha-phosphatidylcholine (40 mg), as described. Dong and Weisgraber (1996) supra; and Dong et al. (1994) J. Biol. Chem. 269:22358-22365.

apoE3 [1] = biological target: T2, apoE3 (Homo sapiens, UniProt P02649); assay: Emulsion binding assay, apoE3
T2 construct: made in house
Procedure: as §1, §2, §3, §4

apoE3 [2] = assay: Aβ production assay, B103-APP cells incubated with apoE3; assay type: cell-based, rat; conditions: FIG. 22
Procedure: Aβ production assay. Stable neuroblastoma B103 cell lines transfected with a wildtype hAPP cDNA construct (B 103-APP) were selected by growing them in Dulbecco's modified Eagle's medium (DMEM) containing 10% fetal calf serum (FBS) and 400 μg/ml G418. A cell line expressing APP at similar levels in mouse brains has been identified by RNase protection assay (RPA) and was used in the studies described below. To determine Aβ production, B103-APP cells were incubated with serum-free minimal essential medium (MEM) containing N2 supplements with or without apoE isoforms for 24 h at 37° C. After incubation, 50 μl of medium was collected and assayed for Aβ levels with an ELISA method. The cells were lysed, and cellular proteins were determined by the Lowry method. AP production was normalized to cellular protein.
Cell Culture. Rat neuroblastoma B103 cells stably expressing human wildtype APP (hAPP695wt) (Xu et al. ((1999) Proc. Natl. Acad. Sci. USA 96:7547-7552; Esposito, et al. (2004) J. Neurochem. 91:1260-1274) were generated in Dr. Lennart Mucke's laboratory at the Gladstone Institute of Neurological Disease and maintained in Dulbecco's modified Eagle's medium (DMEM) (GIBCO, Grand Island, N.Y.) containing 400 μg/ml G418, 10% fetal bovine serum, and 5% horse serum at 37° C. Twenty-four hours after plating into 48-well plates (1×10^5 cells per well), cells were washed twice with serum-free DMEM and cultured for another 24 h in DMEM containing 1% N-2 supplement (GIBCO) to induce differentiation. The cells were treated with either β-VLDL (25 μg/ml cholesterol), recombinant human apoE isoform-enriched β-VLDL (7.5 μg/ml apoE and 25 μg/ml cholesterol), or recombinant human apoE (7.5 μg/ml apoE) in fresh DMEM containing 1% N-2 supplement for an additional 24 h. In some experiments, RAP (25 nM or 1 μM) was added to the cells 1 h before apoE treatment.
Aβ Assay. Aβ secreted into the medium was detected with a sandwich enzyme-linked immunosorbent assay (ELISA), using mAb 266 as a capturing antibody and 3D6 as a detecting antibody, as described. Johnson-Wood et al. ((1997) Proc. Natl. Acad. Sci. USA 94:1550-1555). Aβ was quantified from a standard curve (Aβ42; Bachem, Torrance, Calif.) and normalized by total cellular protein.

YFP-apoE4-CFP cells = assay: MTT cytotoxicity assay; assay type: cell-based, mouse; conditions: 5-10 μM
Description: Since the emission spectrum of CFP (460-520 nm) overlaps with the excitation spectrum of YFP (480-520 nm), FLEXstation (Molecular Devices) can be used to measure FRET in living cells expressing YFP-apoE3-CFP or YFP-apoE4-CFP in a high throughput manner. […] Thus, the ratio of FRET to CFP emission in cells expressing YFP-apoE4-CFP is much higher than that in those expressing YFP-apoE3-CFP (FIG. 31). […] Since the FLEXstation can read FRET in both cells and the culture media treated without or with various small molecules, this assay allows one to know whether a small molecule affects apoE4 domain interaction only in the medium (“medium FRET”) or also inside the cell (“intracellular FRET”). In addition, after measurement of the intracellular FRET, the cells can be incubated further with MTT to determine the cytotoxicity of the compound. Thus, the cell-based FRET assay can simultaneously provide three sets of data-intracellular FRET, medium FRET, and cytotoxicity.

Neuro-2a cells = assay: Aβ-induced lysosomal leakage (cytosolic β-hexosaminidase); assay type: cell-based, mouse
Procedure: The cytosolic fraction was obtained by ultracentrifugation, and the cytosolic β-hexosaminidase activity was measured.
Quantitation of the lysosomal enzyme β-hexosaminidase activity in the cytosol indicates lysosomal leakage. […] After incubation the cells were washed and cytosolic fractions were isolated as described in Materials and Methods. The enzymatic activity of β-hexosaminidase was assayed in 20 μg of cytosolic protein for each sample.
Lysosomal leakage was quantitated by assaying cytosolic 0-hexosaminidase activity. […] Conditioned media were prepared as described above. Apoptosis was quantitated by measuring DNA fragmentation.

Water solubility = assay type: physicochemical
[3] = follow-up assay, second E4 control
[4] = initial assay, 2.5 μl of compound (10 mM stock) in 250 μl, 37° C. 2 hours

T1 sequence (P02649 19-317 C130R): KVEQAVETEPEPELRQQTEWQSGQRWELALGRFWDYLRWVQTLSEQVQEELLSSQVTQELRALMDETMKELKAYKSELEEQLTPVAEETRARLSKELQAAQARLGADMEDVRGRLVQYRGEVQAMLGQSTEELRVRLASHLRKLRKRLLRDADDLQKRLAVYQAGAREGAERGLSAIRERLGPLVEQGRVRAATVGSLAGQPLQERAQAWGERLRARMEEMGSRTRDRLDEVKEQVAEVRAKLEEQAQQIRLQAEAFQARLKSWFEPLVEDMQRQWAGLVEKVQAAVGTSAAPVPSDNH
T2 sequence (P02649 19-317): as the sequence (P02649 19-317 C130R) above, with R112C counted along it

E4 + cpd n = 3, % bound (apoE4; follow-up assay): 57% | E4 + cpd n = 3, % free (apoE4; follow-up assay): 43% | E4 control, % bound (apoE4; [3]): 46% | E4 control, % free (apoE4; [3]): 54% | E4 + cpd, % bound (apoE4; [4]): 12% and 15% | E4 + cpd, % free (apoE4; [4]): 88% and 85% | binding of apoE3 to the emulsion particles (apoE3 [1]): no significant effect | E3 + compound, % bound (apoE3 [1]; follow-up assay): 30% | E3 + compound, % free (apoE3 [1]; follow-up assay): 70% | water solubility (Water solubility): water-soluble
SMILES: O=S(=O)([O-])c1ccc2c(c1)c(Nc1ccc(S(=O)(=O)O)cc1)cc1c2nc2ccccc2[n+]1-c1ccccc1 [GIND-25, azocarmine-G]
apoE4 domain interaction / binding of apoE4 to VLDL-like emulsion particles (apoE4): capable of blocking apoE4 domain interaction; also recorded: inhibited significantly | effect on apoE3 (Aβ production) (apoE3 [2]): no effect | cytotoxicity (MTT assay) (YFP-apoE4-CFP cells): did not cause significant cytotoxicity | lysosomal leakage, cells with medium alone or medium containing apoE3 plus Aβ1-42 (Neuro-2a cells): no significant effect | apoE4 potentiation of Aβ-induced lysosomal leakage (Neuro-2a cells; 5 μM, apoE4 conditioned medium, Aβ1-42 20 μM): block; also recorded: abolish
